Measured values: US10966427B2, “3-pyridyl oxyanilide compound and use therefor” (SUMITOMO CHEMICAL COMPANY, LIMITED, priority 2017, dated 2021)

Assays:
Type in all cases: in vivo
Digitaria ciliaris = assay: Test Examples 2 and 5, Comparative Example 1: foliar spray herbicide efficacy; conditions: second to third leaf stages, sprayed, 63 g/ha; for Herbicide efficacy against digitaria ciliaris: greenhouse 16 days
Description: Here “untreated group” represents a group where a similar treatment procedure to that of the treated group except not using the test compound is done. One point one nine (1.19) mg of the present compound was dissolved 1 mL of a DMF solution containing 2% polyoxyethylene sorbitan monolaurate, and then 18 mL of water was added thereto. The mixture was sprayed uniformly to Digitaria ciliaris in the second to third leaf stages so that the applied dose was made 63 g/ha. Thereafter, the plants were cultivated in a greenhouse for 7 days, and the herbicide efficacy was assessed. […] One point one nine (1.19) mg of the present compound was dissolved 1 mL of a DMF solution containing 2% polyoxyethylene sorbitan monolaurate, and then 18 mL of water was added thereto. The mixture was sprayed uniformly to Digitaria ciliaris in the second to third leaf stages so that the applied dose was made 63 g/ha. Thereafter, the plants were cultivated in a greenhouse for 16 days, and the herbicide efficacy was assessed. The test was conducted similarly to the method described in Test Example 5 except for using a compound represented by the following formula (A): […]

soybean = assay: Test Examples 4 and 5, Comparative Example 1: foliar spray phytotoxicity against useful plants; conditions: second to third leaf stages, sprayed, 63 g/ha; for Phytotoxicity against Soybean: greenhouse 16 days
Description: Here “untreated group” represents a group where a similar treatment procedure to that of the treated group except not using the test compound is done. One point one nine (1.19) mg of the present compound was dissolved 1 mL of a DMF solution containing 2% polyoxyethylene sorbitan monolaurate, and then 18 mL of water was added thereto. The mixture was sprayed uniformly to soybean in the second to third leaf stages so that the applied dose was made 63 g/ha. Thereafter, the plants were cultivated in a greenhouse for 7 days, and the phytotoxicity against useful plants was assessed. […] Also, 1.19 mg of the present compound was dissolved 1 mL of a DMF solution containing 2% polyoxyethylene sorbitan monolaurate, and then 18 mL of water was added thereto. The mixture was sprayed uniformly to soybean in the second to third leaf stages so that the applied dose was made 63 g/ha. Thereafter, the plants were cultivated in a greenhouse for 16 days, and the phytotoxicity against useful plants was assessed. The test was conducted similarly to the method described in Test Example 5 except for using a compound represented by the following formula (A): […]

Echinochloa crus-galli = assay: Test Example 1: foliar spray herbicide efficacy; conditions: second to third leaf stages, sprayed, 63 g/ha, greenhouse for days (number not given)
Description: Here “untreated group” represents a group where a similar treatment procedure to that of the treated group except not using the test compound is done. One point one nine (1.19) mg of the present compound was dissolved 1 mL of a DMF solution containing 2% polyoxyethylene sorbitan monolaurate, and then 18 mL of water was added thereto. The mixture was sprayed uniformly to Echinochloa crus-galli in the second to third leaf stages so that the applied dose was made 63 g/ha. Thereafter, the plants were cultivated in a greenhouse for days, and the herbicide efficacy was assessed.

Leptochloa chinensis = assay: Test Example 3: pot spray followed by flooding, herbicide efficacy; conditions: first leaf stage, pot sprayed, 250 g/ha, flooded to 3 cm next day, greenhouse 20 days
Description: Here “untreated group” represents a group where a similar treatment procedure to that of the treated group except not using the test compound is done. Leptochloa chinensis seeds were seeded into a pot having a diameter of 9 cm and a death of 10 cm that was filled with steam-sterilized soil, and the plants were cultivated in a greenhouse until an emergence of the first leaf stage. Next, 4.75 mg of the present compound was dissolved into a 1 mL of DMF solution containing 2% polyoxyethylene sorbitan monolaurate, and then 18 mL of water was added thereto. The mixture was sprayed uniformly to the pot so that the applied dose was made 250 g/ha. After the pot was flooded to a depth of 3 cm on next day, the plants were cultivated in a greenhouse for 20 days, and the herbicide efficacy was assessed.

Compound	Herbicide efficacy against digitaria ciliaris (Digitaria ciliaris)	Phytotoxicity against Soybean (soybean)	score as herbicide efficacy (Digitaria ciliaris; Digitaria ciliaris, greenhouse 7 days)	score as phytotoxicity (soybean; soybean, greenhouse 7 days)	score as herbicide efficacy (Echinochloa crus-galli)	score as herbicide efficacy (Leptochloa chinensis)
Cn1c(C(F)(F)F)cc(=O)n(-c2cc(Oc3cccnc3OCC(=O)Oc3ccccc3)c(Cl)cc2F)c1=O [Compound (A), reference compound]	10 (100% of herbicide efficacy)	10 (100% of phytotoxicity)	–	–	–	–
CCOC(=O)COc1ncccc1Oc1cc(NC(=O)COc2ncccc2Oc2cc(-n3c(=O)cc(C(F)(F)F)n(C)c3=O)c(F)cc2Cl)c(F)cc1Cl [Present compound]	10 (100% of herbicide efficacy)	1 (10% to 19% of phytotoxicity)	9 (90% to 99% of herbicide efficacy)	2 (20% to 29% of phytotoxicity)	9 (90% to 99% of herbicide efficacy)	10 (100% of herbicide efficacy)
